Active and inactive are the calls of the source.
Columns and labels:
[1] = target: FAD-linked sulfhydryl oxidase ALR (Homo sapiens, UniProt P55789); assay: ALR-catalysed DTT oxidation blockers – biochemical, H2O2 detection, luminescence, cherry-pick, dose response (AID 493248)
[2] = test system: MDCK; assay: antiviral activity against H1N1 influenza, dose response, cell-based, strain KY136 (AID 540257); format: functional; details: Canis lupus familiaris
[3] = target: T1, Intestinal-type alkaline phosphatase (Homo sapiens, UniProt P09923); assay: human intestinal alkaline phosphatase activators, dose response, biochemical, luminescence, uHTS hits (AID 463120); format: functional
T1 sequence (P09923 whole entry): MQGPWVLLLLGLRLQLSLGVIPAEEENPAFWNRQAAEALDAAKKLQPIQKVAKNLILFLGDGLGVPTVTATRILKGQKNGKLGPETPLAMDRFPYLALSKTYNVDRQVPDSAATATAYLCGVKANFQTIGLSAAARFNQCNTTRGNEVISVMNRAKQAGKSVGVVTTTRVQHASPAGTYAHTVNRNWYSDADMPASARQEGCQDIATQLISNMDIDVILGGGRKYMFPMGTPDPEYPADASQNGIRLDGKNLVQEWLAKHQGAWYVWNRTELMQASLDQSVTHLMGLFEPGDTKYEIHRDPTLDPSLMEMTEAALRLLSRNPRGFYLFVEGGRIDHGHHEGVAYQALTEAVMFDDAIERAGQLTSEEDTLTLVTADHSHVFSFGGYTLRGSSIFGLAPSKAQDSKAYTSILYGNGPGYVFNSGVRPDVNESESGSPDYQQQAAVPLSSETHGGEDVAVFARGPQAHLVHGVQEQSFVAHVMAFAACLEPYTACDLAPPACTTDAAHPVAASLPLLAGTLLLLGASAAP

[4] = target: T2, Alkaline phosphatase, tissue-nonspecific isozyme (Homo sapiens, UniProt P05186); assay: activation of tissue-nonspecific alkaline phosphatase – biochemical, TNAP isozyme, human IAP uHTS hits, selectivity assay for human IAP activator project, dose response (AID 488886); format: functional;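 note: potency of compounds raising TNAP activity as a selectivity check on IAP activators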
T2 sequence (P05186 whole entry): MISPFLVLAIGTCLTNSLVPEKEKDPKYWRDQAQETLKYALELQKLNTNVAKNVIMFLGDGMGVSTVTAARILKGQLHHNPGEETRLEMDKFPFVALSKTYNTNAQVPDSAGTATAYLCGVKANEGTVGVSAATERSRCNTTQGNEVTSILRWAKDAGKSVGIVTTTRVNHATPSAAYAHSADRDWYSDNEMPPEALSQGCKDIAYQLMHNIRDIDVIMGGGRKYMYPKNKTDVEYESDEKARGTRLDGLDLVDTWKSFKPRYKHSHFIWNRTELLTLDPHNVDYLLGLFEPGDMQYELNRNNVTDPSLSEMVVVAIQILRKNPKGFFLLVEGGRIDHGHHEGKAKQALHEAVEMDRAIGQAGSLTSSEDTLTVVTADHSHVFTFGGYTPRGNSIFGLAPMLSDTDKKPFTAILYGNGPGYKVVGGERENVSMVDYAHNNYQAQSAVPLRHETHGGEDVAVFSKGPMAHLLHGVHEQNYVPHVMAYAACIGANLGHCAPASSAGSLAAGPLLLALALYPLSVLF

[5] = test system: Streptococcus sp. 'group A'; assay: Streptococcus pyogenes SK(-)GAS viability under kanamycin – luminescence, BacTiterGlo, confirmation, counter-screen for streptokinase expression inhibitor project, dose response (AID 1900); format: functional, organism-based
[6] = target: T1, Intestinal-type alkaline phosphatase; assay: activation of human intestinal alkaline phosphatase – biochemical, luminescent, uHTS hits, set 2, dose response (AID 488817); format: functional;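 note: potency of activators that raise enzyme activity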
[7] = target: Intestinal-type alkaline phosphatase (Mus musculus, UniProt P24822); assay: PubChem AID 488875; format: functional
Chain of Intestinal-type alkaline phosphatase (Mus musculus, UniProt P24822) (P24822 whole entry): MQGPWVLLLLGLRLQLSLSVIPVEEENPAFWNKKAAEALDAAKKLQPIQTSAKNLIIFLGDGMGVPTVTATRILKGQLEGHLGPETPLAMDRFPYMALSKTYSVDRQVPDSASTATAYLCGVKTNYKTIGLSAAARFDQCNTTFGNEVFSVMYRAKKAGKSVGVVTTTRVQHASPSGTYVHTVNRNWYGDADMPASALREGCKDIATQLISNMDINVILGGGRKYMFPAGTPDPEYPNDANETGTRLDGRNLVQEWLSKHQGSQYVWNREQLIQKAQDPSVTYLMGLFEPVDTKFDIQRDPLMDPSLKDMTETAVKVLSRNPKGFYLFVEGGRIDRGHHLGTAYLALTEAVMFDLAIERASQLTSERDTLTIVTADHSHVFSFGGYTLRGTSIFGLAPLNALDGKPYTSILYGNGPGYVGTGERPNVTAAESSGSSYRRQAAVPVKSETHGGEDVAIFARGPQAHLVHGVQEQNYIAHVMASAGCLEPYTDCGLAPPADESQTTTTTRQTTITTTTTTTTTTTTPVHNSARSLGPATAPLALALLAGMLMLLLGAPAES

[8] = test system: Streptococcus; assay: GAS UMAA2166 growth inhibition – luminescence, BacTiterGlo, counter-screen for streptokinase expression inhibitor project, dose response (AID 1915); format: functional, organism-based;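 note: potency for reduction of bacterial viability or growth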
[9] = target: T3, High affinity choline transporter 1 (Homo sapiens, UniProt Q9GZV3); assay: human choline transporter blockers, potency – cell-based, 5-point CRC, membrane potential dye, dose response (AID 504840); format: functional
T3 sequence (Q9GZV3 whole entry): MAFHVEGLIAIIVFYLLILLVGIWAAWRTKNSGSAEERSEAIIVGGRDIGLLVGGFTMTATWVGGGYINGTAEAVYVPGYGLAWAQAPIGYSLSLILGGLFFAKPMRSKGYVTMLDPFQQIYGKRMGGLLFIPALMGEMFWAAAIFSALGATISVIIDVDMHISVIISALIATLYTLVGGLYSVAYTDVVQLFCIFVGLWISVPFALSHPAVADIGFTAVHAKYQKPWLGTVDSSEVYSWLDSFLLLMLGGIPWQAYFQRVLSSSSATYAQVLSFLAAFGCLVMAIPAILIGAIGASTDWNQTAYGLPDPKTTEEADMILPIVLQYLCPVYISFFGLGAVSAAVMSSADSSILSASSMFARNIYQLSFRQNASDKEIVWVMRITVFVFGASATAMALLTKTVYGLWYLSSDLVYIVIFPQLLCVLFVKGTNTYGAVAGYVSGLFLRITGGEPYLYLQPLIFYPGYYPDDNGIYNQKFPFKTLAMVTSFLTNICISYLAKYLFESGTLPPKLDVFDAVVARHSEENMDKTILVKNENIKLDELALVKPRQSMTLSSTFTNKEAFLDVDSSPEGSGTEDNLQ

[10] = target: T4, Streptokinase A (Streptococcus pyogenes serotype M1, UniProt P10520); assay: viability-normalized secreted streptokinase activity reduction – plasminogen activation absorbance, OD405, dose response (AID 1914); format: functional, Streptococcus pyogenes M1 GAS;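 note: secreted streptokinase activity via plasminogen activation per viability signal from cell pellet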
T4 sequence (P10520 whole entry): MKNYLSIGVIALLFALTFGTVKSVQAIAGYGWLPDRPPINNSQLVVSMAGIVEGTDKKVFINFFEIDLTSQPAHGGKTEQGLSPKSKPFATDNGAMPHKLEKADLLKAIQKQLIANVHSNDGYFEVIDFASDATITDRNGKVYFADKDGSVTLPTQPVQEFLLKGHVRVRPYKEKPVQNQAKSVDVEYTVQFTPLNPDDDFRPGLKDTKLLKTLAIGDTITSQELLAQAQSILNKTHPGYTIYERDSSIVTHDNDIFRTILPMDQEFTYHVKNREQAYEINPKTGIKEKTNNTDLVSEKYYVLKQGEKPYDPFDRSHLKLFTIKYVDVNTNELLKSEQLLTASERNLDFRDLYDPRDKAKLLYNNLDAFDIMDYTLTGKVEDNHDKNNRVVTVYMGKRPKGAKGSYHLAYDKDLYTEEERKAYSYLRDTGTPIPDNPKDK

[11] = target: Keap1/Nrf2 (Homo sapiens, UniProt Q14145); assay: disruptors of Keap1 binding to Nrf2 peptide – biochemical, fluorescence polarization, cherry-picked samples, dose response (AID 588683)
Chain of Keap1/Nrf2 (Q16236 whole entry): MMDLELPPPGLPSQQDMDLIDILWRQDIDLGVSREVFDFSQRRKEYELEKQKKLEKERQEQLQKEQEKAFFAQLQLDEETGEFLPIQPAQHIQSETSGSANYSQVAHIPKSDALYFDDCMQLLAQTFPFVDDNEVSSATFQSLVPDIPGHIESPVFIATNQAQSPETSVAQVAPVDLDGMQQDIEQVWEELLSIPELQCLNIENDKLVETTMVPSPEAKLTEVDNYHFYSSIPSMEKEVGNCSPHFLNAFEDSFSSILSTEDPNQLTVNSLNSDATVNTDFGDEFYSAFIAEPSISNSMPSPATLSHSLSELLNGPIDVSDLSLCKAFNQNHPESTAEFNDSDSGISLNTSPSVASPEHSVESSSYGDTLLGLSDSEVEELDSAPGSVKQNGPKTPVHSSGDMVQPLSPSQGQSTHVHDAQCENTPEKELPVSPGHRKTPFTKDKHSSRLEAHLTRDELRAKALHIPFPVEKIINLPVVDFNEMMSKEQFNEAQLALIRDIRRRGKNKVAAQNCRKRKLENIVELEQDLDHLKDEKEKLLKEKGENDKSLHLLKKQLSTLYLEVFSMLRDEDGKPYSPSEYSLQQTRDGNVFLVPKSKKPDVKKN
Chain of Keap1/Nrf2 (Q14145 whole entry): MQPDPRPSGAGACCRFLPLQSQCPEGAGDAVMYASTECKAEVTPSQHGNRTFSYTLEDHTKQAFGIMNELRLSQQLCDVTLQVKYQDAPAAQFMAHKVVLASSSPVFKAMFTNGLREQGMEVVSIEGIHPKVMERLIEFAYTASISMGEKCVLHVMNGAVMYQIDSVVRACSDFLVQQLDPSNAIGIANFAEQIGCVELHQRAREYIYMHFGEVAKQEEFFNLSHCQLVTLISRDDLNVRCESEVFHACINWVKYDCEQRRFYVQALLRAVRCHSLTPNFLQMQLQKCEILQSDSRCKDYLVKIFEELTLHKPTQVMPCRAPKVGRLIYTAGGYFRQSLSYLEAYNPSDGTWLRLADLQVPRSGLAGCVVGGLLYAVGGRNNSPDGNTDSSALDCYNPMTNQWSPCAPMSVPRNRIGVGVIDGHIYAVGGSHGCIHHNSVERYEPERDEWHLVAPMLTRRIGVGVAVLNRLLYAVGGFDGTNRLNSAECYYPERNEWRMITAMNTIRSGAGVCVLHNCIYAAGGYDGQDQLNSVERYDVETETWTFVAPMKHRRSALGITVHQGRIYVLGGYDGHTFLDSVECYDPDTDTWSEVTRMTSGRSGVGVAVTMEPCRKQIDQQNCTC

[12] = target: UDP-galactopyranose mutase (Mycobacterium tuberculosis, UniProt P9WIQ1); assay: Inhibitors of Mycobacterium tuberculosis UDP-galactopyranose mutase (UGM) enzyme Measured in Biochemical System Using Plate Reader - 2105-02_Inhibitor_Dose_CherryPick_Activity. [Related pubchem assays (depositor defined):AID504439]
Chain of UDP-galactopyranose mutase (P9WIQ1 whole entry): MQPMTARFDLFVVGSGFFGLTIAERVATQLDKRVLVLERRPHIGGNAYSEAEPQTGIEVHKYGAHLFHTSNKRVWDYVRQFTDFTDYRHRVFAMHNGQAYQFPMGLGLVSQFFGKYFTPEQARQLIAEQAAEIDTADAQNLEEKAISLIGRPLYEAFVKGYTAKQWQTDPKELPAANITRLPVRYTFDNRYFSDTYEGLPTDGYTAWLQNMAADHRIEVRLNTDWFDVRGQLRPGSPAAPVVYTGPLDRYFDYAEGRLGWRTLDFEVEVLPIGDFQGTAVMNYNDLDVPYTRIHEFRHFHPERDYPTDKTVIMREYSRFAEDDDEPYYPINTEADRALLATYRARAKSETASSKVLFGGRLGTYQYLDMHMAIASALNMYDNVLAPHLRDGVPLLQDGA

[13] = target: T5, Corticotropin-releasing factor receptor 2/Corticotropin-releasing factor-binding protein (Homo sapiens, UniProt P24387+Q13324); assay: activators of CRF receptor 2 with binding protein – uHTS hits, confirmation (AID 602473); format: functional; details: read-out: EC50_Mean
T5 sequence (Q13324 whole entry): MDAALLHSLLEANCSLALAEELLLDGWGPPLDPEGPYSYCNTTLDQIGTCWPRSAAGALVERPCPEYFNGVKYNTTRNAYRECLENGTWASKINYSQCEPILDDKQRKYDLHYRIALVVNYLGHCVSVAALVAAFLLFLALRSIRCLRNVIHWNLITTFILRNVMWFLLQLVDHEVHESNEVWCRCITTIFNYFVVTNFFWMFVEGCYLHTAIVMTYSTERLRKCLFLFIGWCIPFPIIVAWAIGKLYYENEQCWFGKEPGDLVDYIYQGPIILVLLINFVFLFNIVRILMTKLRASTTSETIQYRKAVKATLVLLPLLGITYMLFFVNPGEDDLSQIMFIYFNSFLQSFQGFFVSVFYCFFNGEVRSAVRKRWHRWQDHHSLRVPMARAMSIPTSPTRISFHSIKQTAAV
T5 sequence (P24387 whole entry): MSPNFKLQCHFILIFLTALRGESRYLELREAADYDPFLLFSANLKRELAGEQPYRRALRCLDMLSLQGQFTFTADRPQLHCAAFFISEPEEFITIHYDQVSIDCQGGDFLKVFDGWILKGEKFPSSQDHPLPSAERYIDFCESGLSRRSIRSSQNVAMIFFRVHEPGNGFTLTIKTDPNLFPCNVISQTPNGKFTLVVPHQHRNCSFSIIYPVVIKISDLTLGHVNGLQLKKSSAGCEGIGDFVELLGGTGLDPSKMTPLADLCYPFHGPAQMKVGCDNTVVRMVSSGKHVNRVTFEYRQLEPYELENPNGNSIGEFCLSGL

[14] = test system: Candida albicans; assay: antifungal activity against resistant Candida strain – CaCi-8, fluconazole, Alamar Blue, dry powder, dose response (AID 488807); format: functional, organism-based
[15] = viability of uninfected HEp-2 cells – cell-based, HTS, cytotoxicity control for RSV inhibitor project, dose response (AID 2410); format: functional; details: human respiratory syncytial virus
[16] = target: Dual specificity protein phosphatase 6 (Rattus norvegicus, UniProt Q64346); format: functional;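 note: confirmatory in vitro dose-response testing of MKP-3 inhibition; recombinant His-tagged MKP-3 made in E. coli BL21 with OMFP substrate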
Chain of Dual specificity protein phosphatase 6 (Q64346 whole entry): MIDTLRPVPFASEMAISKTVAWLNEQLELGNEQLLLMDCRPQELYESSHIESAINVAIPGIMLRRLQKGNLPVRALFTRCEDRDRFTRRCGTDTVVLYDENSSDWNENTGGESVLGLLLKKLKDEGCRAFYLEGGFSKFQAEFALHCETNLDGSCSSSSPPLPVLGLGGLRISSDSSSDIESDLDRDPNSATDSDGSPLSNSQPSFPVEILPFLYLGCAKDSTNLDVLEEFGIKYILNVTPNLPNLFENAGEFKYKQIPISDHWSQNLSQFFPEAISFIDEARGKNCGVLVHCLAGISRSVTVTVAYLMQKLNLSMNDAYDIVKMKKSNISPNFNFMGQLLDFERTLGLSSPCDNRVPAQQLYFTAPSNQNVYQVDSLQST

[17] = target: T6, Tyrosine-protein phosphatase non-receptor type 7 (Homo sapiens, UniProt P35236); assay: redox-active compounds inhibiting HePTP phosphatase – biochemical, fluorescence, mechanism study (AID 2068); format: functional
T6 sequence (P35236 whole entry): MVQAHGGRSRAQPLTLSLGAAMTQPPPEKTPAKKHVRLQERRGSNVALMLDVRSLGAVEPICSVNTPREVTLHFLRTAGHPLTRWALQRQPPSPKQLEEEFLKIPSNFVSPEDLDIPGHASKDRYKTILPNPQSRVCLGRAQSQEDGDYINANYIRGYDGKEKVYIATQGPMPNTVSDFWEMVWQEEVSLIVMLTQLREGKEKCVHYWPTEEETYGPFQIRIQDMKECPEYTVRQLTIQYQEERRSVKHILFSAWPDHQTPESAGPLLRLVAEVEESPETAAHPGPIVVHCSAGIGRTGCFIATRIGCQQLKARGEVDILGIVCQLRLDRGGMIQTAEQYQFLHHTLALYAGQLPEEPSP

[18] = target: Dual specificity protein phosphatase 3 (Homo sapiens, UniProt P51452); assay: SAR VHR1 Fluorescent Assay for In Vitro dose response studies Set 2. [Related pubchem assays (depositor defined):AID1654, AID1661, AID1878]; format: functional
Chain of Dual specificity protein phosphatase 3 (P51452 whole entry): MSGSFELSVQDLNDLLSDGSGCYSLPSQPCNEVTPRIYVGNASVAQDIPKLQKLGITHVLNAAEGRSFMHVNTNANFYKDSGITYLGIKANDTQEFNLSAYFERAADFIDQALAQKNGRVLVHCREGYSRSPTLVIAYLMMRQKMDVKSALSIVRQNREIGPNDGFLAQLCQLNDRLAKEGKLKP

[19] = restored growth of temperature-sensitive Burl-1 yeast – whole organism, S. cerevisiae, Burl-1 ts mutant, luminescence, counter-screen for SUMOylation pathway inhibitor project, dose response (AID 463199); format: functional
[20] = Luminescence Cell-Based Dose Retest to Confirm Inhibitors of Cancer Stem Cells. [Related pubchem assays (depositor defined):AID2717, AID2721]; format: functional; details: Homo sapiens
[21] = viability loss of HMLE_sh_eGFP cells – cell-based, luminescence, counter-screen for HMLE_sh_ECad selective toxicity project, dose response (AID 463074); format: functional, Homo sapiens;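 note: HMLE human mammary epithelial cells expressing control shRNA against eGFP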

Chain of FAD-linked sulfhydryl oxidase ALR (P55789 whole entry): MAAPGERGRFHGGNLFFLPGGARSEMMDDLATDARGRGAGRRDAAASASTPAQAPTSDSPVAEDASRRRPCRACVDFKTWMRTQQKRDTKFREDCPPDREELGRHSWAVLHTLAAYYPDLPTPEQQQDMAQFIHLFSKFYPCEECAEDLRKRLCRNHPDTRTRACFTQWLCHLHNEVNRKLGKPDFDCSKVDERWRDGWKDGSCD

Cc1ccc(N2C(=O)C(CC(=O)Nc3cccc(F)c3)N(C3CC3)C2=O)cc1 (centres undefined)
AC50 [1]: < 0.014 µM (active) | IC50 [2]: 52.3 µM (active)

Cc1cccc(CC(Cc2nc3ccccc3[nH]2)c2nc3ccccc3[nH]2)c1 (centres undefined)
EC50 [3]: 29.8 µM (active) | EC50 [4]: 62.1 µM (active) | EC50 [5]: 9.33 µM (active) | EC50 [6]: 47.7 µM (active) | EC50 [7]: 28.9 µM (active) | EC50 [8]: 26.7 µM (active) | IC50 [9]: 12.6 µM (active) | EC50 [10]: > 150 µM (not active)

CN1/C(=C\C=C(C#N)C#N)C(C)(C)c2ccccc21
AC50 [11]: 28.7 µM (active) | AC50 [12]: 114 µM (active) | EC50 [13]: 10.8 µM (active)

O=C(Cn1c2ccccc2c2nc3n(c(=O)c21)CCS3)N1CCCC1
AC50 [14]: 2.91 µM (active)

NS(=O)(=O)c1cc(C(=O)Nc2ccc3c(c2)CCC3)ccc1Cl
CC50 [15]: 39 µM (active) | IC50 [16]: > 100 µM (inactive) | IC50 [17]: > 100 µM (inactive) | IC50 [18]: > 100 µM (inactive)

CC(C)CCn1c(=O)c2ccccc2c2ccccc2c1=O
AC50 [19]: 58.1 µM (active)

Cc1ccc(N(C)S(=O)(=O)c2cccc(C(=O)Nc3nc4ccccc4[nH]3)c2)cc1
EC50 [5]: 1.71 µM (active) | AC50 [20]: 4.1 µM (active) | EC50 [8]: 17.4 µM (active) | AC50 [21]: 32.2 µM (active) | EC50 [10]: > 150 µM (not active)

Source: ChEMBL document CHEMBL1201862, “PubChem BioAssay data set” (2004)
